Data published in patent US7446177B2, “Uses of DC-SIGN and DC-SIGNR for inhibiting hepatitis C virus infection” (Progenics Pharmaceuticals, Inc., priority 2001, dated 2008).
“Also recorded” adds a separate entry of the source.

Legend:
[1] = biological target: T1, HCV-E2 binding to DC-SIGN (Homo sapiens, UniProt Q9NNX6); details: HeLa-DC-SIGN cells, 20 beads/cell; mannan 20 ug/ml, antibodies 0.1-10 ug/ml, EDTA or EGTA 5 mM
T1 construct: E2 from Accurate Chemicals, NY Item # 5444; E2 produced in CHO cells
Method: (§1) Carboxylate-modified FluoSpheres® NeutrAvidin™ labeled microspheres (505/515 nm, 1.0 um; Molecular Probes, Eugene, Oreg.) were coated with HCV E2 glycoprotein as described for ICAM-1 beads (Geijtenbeek et al, Blood, 94, 754-764 (1999)). Briefly, NeutrAvidin™-coated beads were sonicated, and washed in PBS/BSA (0.5%). Beads were incubated with biotinylated-Sp-conjugated AffiniPure F(ab′)2 goat anti-mouse IgG F(ab′)2 fragment specific (6 ug/ml in PBS/BSA (0.5%); Jackson Immunoresearch Laboratories, Inc., West Grove, Pa.) for 2 hours at 37° C. After washing, beads were incubated with mouse anti-E2 antibodies (6 ug/ml in PBS/BSA (0.5%)) at 4° C. overnight. The beads were washed and incubated with 250 ng/ml purified HCV E2 produced in CHO cells (Accurate Chemicals, NY) overnight at 4° C.
(§2) This was performed as described by Geijtenbeek et al, (Blood, 94, 754-764 (1999)), with modifications. Cells were removed from culture by cell dissociation solution (Sigma) for 5 minutes at 37° C. and washed three times in adhesion buffer (20 mM Tris-HCl [pH 8.0], 150 mM NaCl, 1 mM CaCl2, 2 mM MgCl2, and 0.5% BSA). Cells were resuspended at a final concentration of 5×10^6 cells/ml in adhesion buffer for 30 minutes at 4° C. to recharge Ca2+ levels. Cells ([…]) were preincubated with mannan (20 ug/ml; Sigma), antibodies (0.1-10 ug/ml), EDTA (5 mM) or EGTA (5 mM) for 10 minutes at room temperature. HCV-E2-coated fluorescent beads (20 beads/cell) were added, and the suspension incubated for 30 minutes at 37° C. Adhesion was determined by measuring the percentage of cells that bound fluorescent beads by flow cytometry using a FACSca (Becton Dickinson, Oxnard, Calif.).
(§3) To determine whether DC-SIGN and DC-SIGN-R bind to HCV-E2 glycoproetin, a flow cytometric adhesion assay (Geijtenbeek et al, Blood, 94, 754-764 (1999)) was adapted. HCV-E2 protein produced in CHO cells was captured on fluorescent beads using a panel of anti-E2 mAbs, which were incubated with DC-SIGN- and DC-SIGN-R-HeLa cells at a ratio of 20 beads per cell.

[2] = biological target: T2, HCV-E2 binding to DC-SIGN-R (Homo sapiens, UniProt Q9H2X3); details: HeLa-DC-SIGN-R cells, 20 beads/cell; mannan 20 ug/ml, antibodies 0.1-10 ug/ml, EDTA or EGTA 5 mM
T2 construct: E2 from Accurate Chemicals, NY Item # 6749; E2 produced in CHO cells
Method: as §1, §2, §3

T2 sequence (Q9H2X3 whole entry): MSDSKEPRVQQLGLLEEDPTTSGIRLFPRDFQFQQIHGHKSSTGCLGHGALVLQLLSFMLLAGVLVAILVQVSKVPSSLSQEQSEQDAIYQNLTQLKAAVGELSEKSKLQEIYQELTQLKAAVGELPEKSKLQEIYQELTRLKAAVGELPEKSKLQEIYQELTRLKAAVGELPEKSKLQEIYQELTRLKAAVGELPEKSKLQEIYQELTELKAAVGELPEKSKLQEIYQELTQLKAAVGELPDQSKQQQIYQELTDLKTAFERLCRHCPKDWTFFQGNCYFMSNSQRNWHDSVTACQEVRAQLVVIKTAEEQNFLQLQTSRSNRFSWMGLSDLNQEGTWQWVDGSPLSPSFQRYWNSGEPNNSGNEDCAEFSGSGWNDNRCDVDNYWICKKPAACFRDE
T1 sequence (Q9NNX6 whole entry): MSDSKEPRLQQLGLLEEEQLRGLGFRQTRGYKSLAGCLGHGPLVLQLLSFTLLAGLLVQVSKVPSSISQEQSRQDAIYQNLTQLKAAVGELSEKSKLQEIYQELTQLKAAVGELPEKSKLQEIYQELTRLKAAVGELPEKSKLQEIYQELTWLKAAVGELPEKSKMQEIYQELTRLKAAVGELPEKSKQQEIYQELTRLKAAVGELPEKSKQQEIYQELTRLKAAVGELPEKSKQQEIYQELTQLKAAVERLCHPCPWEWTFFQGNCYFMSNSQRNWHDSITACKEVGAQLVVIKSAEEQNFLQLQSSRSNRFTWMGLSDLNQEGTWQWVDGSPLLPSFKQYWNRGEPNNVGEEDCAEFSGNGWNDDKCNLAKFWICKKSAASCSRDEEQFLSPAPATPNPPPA

Molecule	Inhibition of adhesion of HCV-E2-coated beads to DC-SIGN [1]	Inhibition of adhesion of HCV-E2-coated beads to DC-SIGN-R [2]
O=C(O)CN(CCOCCOCCN(CC(=O)O)CC(=O)O)CC(=O)O [EGTA]	efficiently inhibited	efficiently inhibited
O=C(O)CN(CCN(CC(=O)O)CC(=O)O)CC(=O)O [EDTA]	efficiently inhibited	efficiently inhibited
mannan	inhibit; also recorded: efficiently inhibited; also recorded: blocked	inhibit; also recorded: efficiently inhibited; also recorded: blocked
